Results taken from the NIST ThermoML archive (doi:10.1021/acs.jced.5b00051).
Numbers after ± are expanded uncertainties.

test: molar heat capacity at constant pressure; conditions: 275.15 K; 101.33 kPa; Liquid; Large sample (1 g) DSC

Structure (SMILES) | molar heat capacity at constant pressure [J/K/mol]
CCCCCCOCCOCCO [2-(2-hexyloxyethoxy)ethanol] | 411.2 ± 6.4
COCCOCCO [2-(2-methoxyethoxy)ethanol] | 261.9 ± 4.1
CCCOCCOCCO [2-(2-propoxyethoxy)ethanol] | 321.3 ± 5
COCCOCCOCCO [2-[2-(2-methoxyethoxy)ethoxy]ethanol] | 352.2 ± 5.5
CCCCCCCCOCCOCCOCCO [2-[2-[2-(octyloxy)ethoxy]ethoxy]ethanol] | 563.7 ± 8.7
CCCCOCCO [2-butoxyethan-1-ol] | 261.7 ± 4.1
CCOCCO [2-ethoxyethan-1-ol] | 203.3 ± 3.2
CCCOCCO [2-propoxyethanol] | 231.6 ± 3.6

same assay, conditions: 277.15 K; 101.33 kPa; Liquid; Large sample (1 g) DSC

Structure (SMILES) | molar heat capacity at constant pressure [J/K/mol]
CCCCCCOCCOCCO [2-(2-hexyloxyethoxy)ethanol] | 412 ± 6.4
COCCOCCO [2-(2-methoxyethoxy)ethanol] | 262.3 ± 4.1
CCCOCCOCCO [2-(2-propoxyethoxy)ethanol] | 322 ± 5
COCCOCCOCCO [2-[2-(2-methoxyethoxy)ethoxy]ethanol] | 352.6 ± 5.5
CCCCCCCCOCCOCCOCCO [2-[2-[2-(octyloxy)ethoxy]ethoxy]ethanol] | 564.5 ± 8.7
CCCCOCCO [2-butoxyethan-1-ol] | 262.6 ± 4.1
CCOCCO [2-ethoxyethan-1-ol] | 204 ± 3.2
CCCOCCO [2-propoxyethanol] | 232.4 ± 3.6

same assay, conditions: 279.15 K; 101.33 kPa; Liquid; Large sample (1 g) DSC

Structure (SMILES) | molar heat capacity at constant pressure [J/K/mol]
CCCCCCOCCOCCO [2-(2-hexyloxyethoxy)ethanol] | 412.8 ± 6.4
COCCOCCO [2-(2-methoxyethoxy)ethanol] | 262.7 ± 4.1
CCCOCCOCCO [2-(2-propoxyethoxy)ethanol] | 322.6 ± 5
COCCOCCOCCO [2-[2-(2-methoxyethoxy)ethoxy]ethanol] | 352.9 ± 5.5
CCCCCCCCOCCOCCOCCO [2-[2-[2-(octyloxy)ethoxy]ethoxy]ethanol] | 565.2 ± 8.8
CCCCOCCO [2-butoxyethan-1-ol] | 263.6 ± 4.1
CCOCCO [2-ethoxyethan-1-ol] | 204.6 ± 3.2
CCCOCCO [2-propoxyethanol] | 233.3 ± 3.6

same assay, conditions: 281.15 K; 101.33 kPa; Liquid; Large sample (1 g) DSC

Structure (SMILES) | molar heat capacity at constant pressure [J/K/mol]
CCCCCCOCCOCCO [2-(2-hexyloxyethoxy)ethanol] | 413.6 ± 6.4
COCCOCCO [2-(2-methoxyethoxy)ethanol] | 263.2 ± 4.1
CCCOCCOCCO [2-(2-propoxyethoxy)ethanol] | 323.3 ± 5
COCCOCCOCCO [2-[2-(2-methoxyethoxy)ethoxy]ethanol] | 353.2 ± 5.5
CCCCCCCCOCCOCCOCCO [2-[2-[2-(octyloxy)ethoxy]ethoxy]ethanol] | 566 ± 8.8
CCCCOCCO [2-butoxyethan-1-ol] | 264.6 ± 4.1
CCOCCO [2-ethoxyethan-1-ol] | 205.3 ± 3.2
CCCOCCO [2-propoxyethanol] | 234.1 ± 3.6

same assay, conditions: 283.15 K; 101.33 kPa; Liquid; Large sample (1 g) DSC

Structure (SMILES) | molar heat capacity at constant pressure [J/K/mol]
CCCCCCOCCOCCO [2-(2-hexyloxyethoxy)ethanol] | 414.4 ± 6.4
COCCOCCO [2-(2-methoxyethoxy)ethanol] | 263.6 ± 4.1
CCCOCCOCCO [2-(2-propoxyethoxy)ethanol] | 324 ± 5
COCCOCCOCCO [2-[2-(2-methoxyethoxy)ethoxy]ethanol] | 353.6 ± 5.5
CCCCCCCCOCCOCCOCCO [2-[2-[2-(octyloxy)ethoxy]ethoxy]ethanol] | 566.9 ± 8.8
CCCCOCCO [2-butoxyethan-1-ol] | 265.6 ± 4.1
CCOCCO [2-ethoxyethan-1-ol] | 205.9 ± 3.2
CCCOCCO [2-propoxyethanol] | 235 ± 3.6

same assay, conditions: 285.15 K; 101.33 kPa; Liquid; Large sample (1 g) DSC

Structure (SMILES) | molar heat capacity at constant pressure [J/K/mol]
CCCCCCOCCOCCO [2-(2-hexyloxyethoxy)ethanol] | 415.3 ± 6.4
COCCOCCO [2-(2-methoxyethoxy)ethanol] | 264.1 ± 4.1
CCCOCCOCCO [2-(2-propoxyethoxy)ethanol] | 324.7 ± 5
COCCOCCOCCO [2-[2-(2-methoxyethoxy)ethoxy]ethanol] | 353.9 ± 5.5
CCCCCCCCOCCOCCOCCO [2-[2-[2-(octyloxy)ethoxy]ethoxy]ethanol] | 567.7 ± 8.8
CCCCOCCO [2-butoxyethan-1-ol] | 266.6 ± 4.1
CCOCCO [2-ethoxyethan-1-ol] | 206.6 ± 3.2
CCCOCCO [2-propoxyethanol] | 235.8 ± 3.7

same assay, conditions: 287.15 K; 101.33 kPa; Liquid; Large sample (1 g) DSC

Structure (SMILES) | molar heat capacity at constant pressure [J/K/mol]
CCCCCCOCCOCCO [2-(2-hexyloxyethoxy)ethanol] | 416.1 ± 6.4
COCCOCCO [2-(2-methoxyethoxy)ethanol] | 264.6 ± 4.1
CCCOCCOCCO [2-(2-propoxyethoxy)ethanol] | 325.4 ± 5
COCCOCCOCCO [2-[2-(2-methoxyethoxy)ethoxy]ethanol] | 354.3 ± 5.5
CCCCCCCCOCCOCCOCCO [2-[2-[2-(octyloxy)ethoxy]ethoxy]ethanol] | 568.6 ± 8.8
CCCCOCCO [2-butoxyethan-1-ol] | 267.6 ± 4.1
CCOCCO [2-ethoxyethan-1-ol] | 207.3 ± 3.2
CCCOCCO [2-propoxyethanol] | 236.6 ± 3.7

same assay, conditions: 289.15 K; 101.33 kPa; Liquid; Large sample (1 g) DSC

Structure (SMILES) | molar heat capacity at constant pressure [J/K/mol]
CCCCCCOCCOCCO [2-(2-hexyloxyethoxy)ethanol] | 417 ± 6.5
COCCOCCO [2-(2-methoxyethoxy)ethanol] | 265.1 ± 4.1
CCCOCCOCCO [2-(2-propoxyethoxy)ethanol] | 326.1 ± 5.1
COCCOCCOCCO [2-[2-(2-methoxyethoxy)ethoxy]ethanol] | 354.7 ± 5.5
CCCCCCCCOCCOCCOCCO [2-[2-[2-(octyloxy)ethoxy]ethoxy]ethanol] | 569.5 ± 8.8
CCCCOCCO [2-butoxyethan-1-ol] | 268.5 ± 4.2
CCOCCO [2-ethoxyethan-1-ol] | 208 ± 3.2
CCCOCCO [2-propoxyethanol] | 237.5 ± 3.7

same assay, conditions: 291.15 K; 101.33 kPa; Liquid; Large sample (1 g) DSC

Structure (SMILES) | molar heat capacity at constant pressure [J/K/mol]
CCCCCCOCCOCCO [2-(2-hexyloxyethoxy)ethanol] | 417.9 ± 6.5
COCCOCCO [2-(2-methoxyethoxy)ethanol] | 265.6 ± 4.1
CCCOCCOCCO [2-(2-propoxyethoxy)ethanol] | 326.8 ± 5.1
COCCOCCOCCO [2-[2-(2-methoxyethoxy)ethoxy]ethanol] | 355.1 ± 5.5
